Reference: patent US20180092866A1, “SUBSTITUTED N-([1,1'-BIPHENYL]-3-YL)-[1,1'-BIPHENYL]-3-CARBOXAMIDE ANALOGS AS INHIBITORS FOR BETA-CATENIN/B-CELL LYMPHOMA 9 INTERACTIONS” (University of Utah Research Foundation, priority 2015, published 2018)
Structures can show the parent of a compound that is named as a salt.

Molecular target: T1, β-catenin/BCL9 protein-protein interactions (Homo sapiens, UniProt P35222)
T1 construct: C-terminally His6-tagged wild-type or mutant β-catenin (residues 138-686) proteins; made in house; host or cells: E. coli BL21 DE3
T1 sequence (P35222 138-686): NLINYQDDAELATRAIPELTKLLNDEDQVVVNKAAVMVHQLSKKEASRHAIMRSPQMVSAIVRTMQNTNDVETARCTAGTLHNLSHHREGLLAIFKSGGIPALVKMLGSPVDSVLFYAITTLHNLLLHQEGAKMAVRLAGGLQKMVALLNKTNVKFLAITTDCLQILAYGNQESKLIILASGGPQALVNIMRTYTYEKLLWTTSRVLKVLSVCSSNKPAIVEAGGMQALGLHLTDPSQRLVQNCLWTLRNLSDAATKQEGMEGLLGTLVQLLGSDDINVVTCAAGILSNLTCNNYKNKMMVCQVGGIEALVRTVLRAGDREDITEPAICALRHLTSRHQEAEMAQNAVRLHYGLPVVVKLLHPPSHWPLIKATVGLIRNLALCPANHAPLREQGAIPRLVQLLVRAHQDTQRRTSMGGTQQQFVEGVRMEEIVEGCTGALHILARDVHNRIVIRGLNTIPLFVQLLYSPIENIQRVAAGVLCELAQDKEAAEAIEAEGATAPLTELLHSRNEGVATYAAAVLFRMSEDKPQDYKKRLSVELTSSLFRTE
Assay: AlphaScreen competitive inhibition assay, wild-type β-catenin/BCL9
Format: binding
Conditions: for Ki: wild-type β-catenin (residues 138-686)/biotinylated BCL9 26-mer, Ki derived from IC50, mean ± SD; for relative inhibitory potency for β-catenin/BCL9 PPIs (in words): AlphaScreen assay, comparison with named compound
Experimental: The purity of the wild-type and mutant β-catenin proteins was all greater than 95% as determined by the SDS-PAGE gel analysis. Both the wild-type and mutant β-catenin proteins are stable under the testing conditions. Native non-denaturing gel electrophoresis was performed to confirm the homogeneity of the purified proteins. Experiments were performed in white opaque 384-well plates from PerkinElmer, and the samples were read on a Synergy 2 plate reader (Biotek) with a sensitivity setting of 200 using AlphaScreen protocol with excitation at 680 nm and emission at 570 nm. All dilutions were made in 1×assay buffer containing 25 mM HEPES (pH=7.0), 100 mM NaCl, 0.01% Triton X-100, and 0.1% BSA. In the AlphaScreen competitive inhibition assay, 40 nM of C-terminally His6-tagged wild-type or mutant β-catenin (residues 138-686) proteins was incubated with 5 nM of N-terminal biotinylated human BCL9 26-mer (residues 350-375) for 30 min at 4° C., and then different concentrations of the tested inhibitors in the assay buffer were added to make a final volume of 20 μL. The mixture was incubated at 4° C. for 2 h. The donor and acceptor beads were added to a final concentration of 10 μg/mL in 25 μL of assay buffer. The mixture was incubated at 4° C. for 1 h. The IC50 value was determined by nonlinear least-square analysis of GraphPad Prism 5.0. […] The Ki values were derived from the IC50 values by a reported method (Nikolovska-Coleska et al. (2004) Anal. Biochem. […]: 261-273). Experiments were performed in triplicate and carried out in the presence of 1% DMSO.

Row | Structure (SMILES) | Ki [µM] | relative inhibitory potency for β-catenin/BCL9 PPIs (in words)
1 | CS(=O)(=O)Nc1cccc(-c2cc(NC(=O)c3ccc(O[C@H]4CCNC4)c(-c4ccc(F)c(F)c4)c3)ccc2O[C@H]2CCNC2)c1 [Compound 102] | 126 ± 10.3 | –
2 | O=C(Nc1ccc(O[C@H]2CCNC2)c(-c2ccc(F)cc2)c1)c1ccc(O[C@H]2CCNC2)c(-c2ccc(F)nc2)c1 [Compound 95, N-(4′-fluoro-6-((S)-pyrrolidin-3-yloxy)-[1,1′-biphenyl]-3-yl)-3-(6-fluoropyridin-3-yl)-4-((S)-pyrrolidin-3-yloxy)benzamide dihydrochloride] | 244 ± 13.3 | –
3 | Cl.Cl.NCCOc1ccc(NC(=O)c2ccc(OCCN)c(-c3ccc(F)c(F)c3)c2)cc1-c1ccc(F)cc1 [Compound 17, 2-((5-(6-(2-Ammonioethoxy)-3′,4′-difluoro-[1,1′-biphenyl]-3-ylcarboxamido)-4′-fluoro-[1,1′-biphenyl]-2-yl)oxy) ethanaminium chloride] | 6.12 ± 1.53 | more potent than 9 and 13
4 | CS(=O)(=O)Nc1cccc(C#Cc2cc(NC(=O)c3ccc(O[C@H]4CCNC4)c(-c4ccc(F)c(F)c4)c3)ccc2O[C@H]2CCNC2)c1 [Compound 101] | 56.2 ± 7.64 | –
5 | O=C(O)c1cccc(-c2cc(NC(=O)c3ccc(O[C@H]4CCNC4)c(-c4ccc(F)c(F)c4)c3)ccc2O[C@H]2CCNC2)c1 [Compound 98] | 180 ± 4.84 | –
6 | O=C(Nc1ccc(OC2CNC2)c(-c2ccc(F)cc2)c1)c1ccc(OC2CNC2)c(-c2ccc(F)c(F)c2)c1 [Compound 22, 3-((5-(6-(azetidin-1-ium-3-yloxy)-3′,4′-difluoro-[1,1′-biphenyl]-3-ylcarboxamido)-4′-fluoro-[1,1′-biphenyl]-2-yl)oxy)azetidin-1-ium chloride] | 17 ± 1.99 | –
7 | COC(=O)c1ccc(OCCNC(=O)OC(C)(C)C)c(Br)c1 [Compound 30, Methyl-3-bromo-4-(2-((tert-butoxycarbonyl)amino)ethoxy) benzoate] | 156 ± 3.96 | –
8 | COC(=O)c1ccc(OCCNC(=O)OC(C)(C)C)c(-c2ccc(F)cc2)c1 [Compound 31, Methyl-6-(2-((tert-butoxycarbonyl)amino)ethoxy)-4′-fluoro-[1,1′-biphenyl]-3-carboxylate] | 180 ± 4.84 | –
9 | Cl.NCCOc1ccc(C(=O)Nc2cccc(-c3ccc(F)cc3)c2)cc1-c1ccc(F)cc1 [Compound 9, 2-((4′-Fluoro-5-((4′-fluoro-[1,1′-biphenyl]-3-yl)carbamoyl)-[1,1′-biphenyl]-2-yl)oxy) ethanaminium chloride] | 33.6 ± 4.34 | higher potency than 14
10 | NCCOc1ccc(C(=O)Nc2cccc(-c3ccc(F)cc3)c2)cc1-c1ccsc1 [Compound 15, 2-(4-((4′-Fluoro-[1,1′-biphenyl]-3-yl)carbamoyl)-2-(thiophen-3-yl)phenoxy) ethanaminium chloride] | 32.4 ± 4.24 | –
11 | O=C(Nc1ccc(O[C@H]2CCNC2)c(-c2ccc(F)cc2)c1)c1ccc(O[C@@H]2CCNC2)c(-c2ccc(F)c(F)c2)c1 [Compound 27, (R)-3-((3′,4′-difluoro-5-((4′-fluoro-6-(((S)-pyrrolidin-1-ium-3-yl)oxy)-[1,1′-biphenyl]-3-yl)carbamoyl)-[1,1′-biphenyl]-2-yl)oxy) pyrrolidin-1-ium chloride] | 5.6 ± 0.514 | –
12 | Cl.NCCOc1ccc(C(=O)Nc2cccc(-c3ccc(F)cc3)c2)cc1-c1ccc(F)c(F)c1 [Compound 13, 2-((3′,4′-Difluoro-5-((4′-fluoro-[1,1′-biphenyl]-3-yl)carbamoyl)-[1,1′-biphenyl]-2-yl)oxy) ethanaminium chloride] | 29.3 ± 3.85 | higher potency than 14
13 | Cl.NCc1ccc(C(N)=O)cc1-c1ccc(F)cc1 [Compound 7, (5-Carbamoyl-4′-fluoro-[1,1′-biphenyl]-2-yl)methanaminium chloride] | – | less potent than 6

The remaining lines, values ahead:

Row | Ki [µM] | relative inhibitory potency for β-catenin/BCL9 PPIs (in words) | Structure (SMILES)
14 | 29.5 ± 5.77 | – | N#Cc1ccc(-c2cc(NC(=O)c3ccc(O[C@H]4CCNC4)c(-c4ccc(F)c(F)c4)c3)ccc2O[C@H]2CCNC2)cc1 [Compound 91f, N-(4′-cyano-6-((S)-pyrrolidin-3-yloxy)-[1,1′-biphenyl]-3-yl)-3′,4′-difluoro-6-((S)-pyrrolidin-3-yloxy)-[1,1′-biphenyl]-3-carboxamide dihydrochloride]
15 | 54.8 ± 6.24 | – | O=C(Nc1ccc(O[C@H]2CCNC2)c(-c2ccccc2C(F)(F)F)c1)c1ccc(O[C@H]2CCNC2)c(-c2ccc(F)c(F)c2)c1 [Compound 91d, 3′,4′-Difluoro-6-((S)-pyrrolidin-3-yloxy)-N-(6-((S)-pyrrolidin-3-yloxy)-2′-(trifluoromethyl)-[1,1′-biphenyl]-3-yl)-[1,1′-biphenyl]-3-carboxamide dihydrochloride]
16 | 11.1 ± 1.16 | – | NS(=O)(=O)c1ccc(-c2cc(NC(=O)c3ccc(O[C@H]4CCNC4)c(-c4ccc(F)c(F)c4)c3)ccc2O[C@H]2CCNC2)cc1 [Compound 91i, 3′,4′-Difluoro-6-((S)-pyrrolidin-3-yloxy)-N-(6-((S)-pyrrolidin-3-yloxy)-4′-sulfamoyl-[1,1′-biphenyl]-3-yl)-[1,1′-biphenyl]-3-carboxamide dihydrochloride]
17 | 36 ± 7.21 | – | Cc1ccccc1-c1cc(NC(=O)c2ccc(O[C@H]3CCNC3)c(-c3ccc(F)c(F)c3)c2)ccc1O[C@H]1CCNC1 [Compound 91a, 3′,4′-Difluoro-N-(2′-methyl-6-((S)-pyrrolidin-3-yloxy)-[1,1′-biphenyl]-3-yl)-6-((S)-pyrrolidin-3-yloxy)-[1,1′-biphenyl]-3-carboxamide dihydrochloride]
18 | 68.6 ± 14.9 | – | O=C(Nc1cnc(O[C@H]2CCNC2)c(-c2ccc(F)cc2)c1)c1cnc(O[C@H]2CCNC2)c(-c2ccc(F)c(F)c2)c1 [Compound 84c, 5-(3,4-difluorophenyl)-N-(5-(4-fluorophenyl)-6-((S)-pyrrolidin-3-yloxy)pyridin-3-yl)-6-((S)-pyrrolidin-3-yloxy)nicotinamide dihydrochloride]
19 | 78.6 ± 10.4 | – | O=C(Nc1cnc(O[C@H]2CCNC2)c(-c2ccc(F)cc2)c1)c1ccc(O[C@H]2CCNC2)c(-c2ccc(F)c(F)c2)c1 [Compound 84a, 3′,4′-Difluoro-N-(5-(4-fluorophenyl)-6-((S)-pyrrolidin-3-yloxy)pyridin-3-yl)-6-((S)-pyrrolidin-3-yloxy)-[1,1′-biphenyl]-3-carboxamide dihydrochloride]
20 | 84.2 ± 14.8 | – | O=C(Nc1ccc(O[C@H]2CCNC2)c(-c2ccc(F)cc2)c1)c1cnc(O[C@H]2CCNC2)c(-c2ccc(F)c(F)c2)c1 [Compound 84b, 5-(3,4-difluorophenyl)-N-(4′-fluoro-6-((S)-pyrrolidin-3-yloxy)-[1,1′-biphenyl]-3-yl)-6-((S)-pyrrolidin-3-yloxy)nicomide dihydrochloride]
21 | 41.4 ± 9.16 | – | Cc1ccc(-c2cc(NC(=O)c3ccc(O[C@H]4CCNC4)c(-c4ccc(F)c(F)c4)c3)ccc2O[C@H]2CCNC2)cc1 [Compound 91c, 3′,4′-Difluoro-N-(4′-methyl-6-((S)-pyrrolidin-3-yloxy)-[1,1′-biphenyl]-3-yl)-6-((S)-pyrrolidin-3-yloxy)-[1,1′-biphenyl]-3-carboxamide dihydrochloride]
22 | 51.7 ± 6.15 | – | NC(=O)c1ccc(-c2cc(NC(=O)c3ccc(O[C@H]4CCNC4)c(-c4ccc(F)c(F)c4)c3)ccc2O[C@H]2CCNC2)cc1 [Compound 91h, N-(4′-carbamoyl-6-((S)-pyrrolidin-3-yloxy)-[1,1′-biphenyl]-3-yl)-3′,4′-difluoro-6-((S)-pyrrolidin-3-yloxy)-[1,1′-biphenyl]-3-carboxamide dihydrochloride]
23 | 19.9 ± 4.87 | – | O=C(Nc1ccc(O[C@H]2CCNC2)c(-c2ccc(-c3nn[nH]n3)cc2)c1)c1ccc(O[C@H]2CCNC2)c(-c2ccc(F)c(F)c2)c1 [Compound 91l, 3′,4′-Difluoro-6-((S)-pyrrolidin-3-yloxy)-N-(6-((S)-pyrrolidin-3-yloxy)-4′-(2h-tetrazol-5-yl)-[1,1′-biphenyl]-3-yl)-[1,1′-biphenyl]-3-carboxamide dihydrochloride]
24 | 40.8 ± 5.94 | – | Cc1cccc(-c2cc(NC(=O)c3ccc(O[C@H]4CCNC4)c(-c4ccc(F)c(F)c4)c3)ccc2O[C@H]2CCNC2)c1 [Compound 91b, 3′,4′-Difluoro-N-(3′-methyl-6-((S)-pyrrolidin-3-yloxy)-[1,1′-biphenyl]-3-yl)-6-((S)-pyrrolidin-3-yloxy)-[1,1′-biphenyl]-3-carboxamide dihydrochloride]
